Values joined by “and” are separate entries in the source; they are usually repeats but may differ in a detail not shown here. Equal values may be shown once.
How the values were obtained:
[1] = test system: M. avium; experiment: MIC against CF isolates (Example 5); format: cell-based; conditions: Mycobacterium avium, strain MAC101, M. avium, MAC reference strain, blood isolate from HIV patient
[2] = Clinical chemistry after face-mask inhalation in beagle dogs; format: in vivo; conditions: times not given
Method: The objective of the study is to determine the maximum tolerated dose (MTD) or maximum feasible dose (MFD) of inhaled bismuth ethanedithiol (BisEDT) after face-mask inhalation exposure (up to 60 min of exposure) in male and female beagle dogs. Animals will be monitored for up to 14 days following the first day of exposure and blood will be collected at predetermined timepoints to analyze the pharmacokinetics of BisEDT. In addition, a coagulation panel will be conducted prior to necropsy. At the conclusion of the study animals will be euthanized and undergo necropsy during which the respiratory tract will be harvested for bioanalytical and histopathological analysis. Results obtained will inform a follow up repeated dose GLP study. This test article is currently being developed as a novel formulation of a broad spectrum antimicrobial/antibiofilm agent, indicated for the treatment of lung infections in patients with cystic fibrosis.
Once adequately conditioned to the restraint device and face-masks, the animals are individually exposed to the test article aerosols. Animals receive a single face-mask inhalation exposure in a ramp study design to test article aerosols for up to 60 min. Animal observations during and post exposure determine the tolerance of inhaled BisEDT aerosols.
Group 1 (vehicle) are exposed to a vehicle atmosphere for 30 minutes. Group 2 (50 μg/kg) are exposed to BisEDT for 30 minutes. Target concentrations and exposure durations for Groups 3-5 are based on the presence of any toxicity via clinical observations or gross necropsy findings. In each of Groups 3-5, if no adverse clinical signs of toxicity are observed, the next groups' exposure will be conducted at a higher target dose. If adverse clinical signs of toxicity are observed, the next groups' exposure will be conducted at a lower target dose. This approach is repeated for all BisEDT doses. The final documented exposure duration is the maximum tolerated dose or the maximum feasible dose.
Blood are collected for pharmacokinetic (PK) analysis prior to exposure, then at 4 hr (±5 min) post exposure, and again on Day 1, Day 2, Day 7 (pre- and 4 hr (±5 min)-post exposure), Day 8, Day 9, Day 10, Day 11, Day 12, Day 13, and Day 14. A total of 0.25 mL is collected at each timepoint. No PK blood is collected from the vehicle control (Group 1) animals; only animals exposed to BisEDT have blood collected for PK analysis. Collected samples are flash frozen without processing for shipment to Medpace for bioanalytical analysis. Additional blood is collected from all animals in all groups for hematology (1 mL) and clinical chemistry (1 mL) at baseline, Day 7 (pre-exposure), and again at euthanasia. Blood (2-2 mL) is collected from all animals at necropsy for coagulation analysis (d-Dimer, fibrinogen, PT, and PTT).
For clinical chemistry analyses, whole blood (1 mL) is placed into serum separator or clot tube and […] by centrifugation at a minimum of 1300 g at 2 to 8° C. for 10 (±1) min. Plasma samples are stored at −70 to −90° C. until analysis.
Clinical chemistry samples are analyzed on a Hitachi Modular Analytics Clinical Chemistry System (Roche Diagnostics, Indianapolis, IN).

[3] = Grp 2, dogs 2001 male, 2002 female, 3 samplings each
[4] = Grp 3, dogs 3001 male, 3002 female, 3 samplings each
[5] = Grp 4, dogs 4001 male, 4004 female (3 samplings each), 4002 female, 4003 male (2 samplings each)
[6] = Grp 4 Avg (stands after dogs 4001, 4004), 3 samplings

SMILES: CC(S)C(C)S.[Bi] (centres unmarked) [BisBDT, bismuth-2,3-butanedithiol]
- MIC [1]: 1 µg/mL

SMILES: C1C[S][Bi]([S]CC[S][Bi]2[S]CC[S]2)[S]1 [BisEDT, bismuth-1,2-ethanedithiol]
- AGR [2, 3]: 1.9 and 2.0 and 1.8 and 1.7 and 2.3
- ALB [2, 3]: 3.3 g/dL and 3.4 g/dL and 3.5 g/dL and 3.6 g/dL and 3.7 g/dL
- ALT [2, 3]: 22 IU/L and 18 IU/L and 29 IU/L and 27 IU/L
- AST [2, 3]: 48 IU/L and 36 IU/L and 35 IU/L and 41 IU/L and 38 IU/L
- BUN [2, 3]: 12 mg/dL and 16 mg/dL and 15 mg/dL and 13 mg/dL and 14 mg/dL
- CA2 [2, 3]: 10.9 mg/dL and 10.8 mg/dL and 11.0 mg/dL and 10.6 mg/dL
- CHOL [2, 3]: 168 mg/dL and 167 mg/dL and 152 mg/dL and 138 mg/dL and 123 mg/dL and 114 mg/dL
- CREA [2, 3]: 0.7 mg/dL and 0.6 mg/dL
- GGT [2, 3]: 3 IU/L
- GLOB [2, 3]: 1.7 g/dL and 2.0 g/dL and 1.9 g/dL and 1.6 g/dL
- GLUC [2, 3]: 91 mg/dL and 97 mg/dL and 102 mg/dL and 95 mg/dL and 98 mg/dL and 89 mg/dL
- K [2, 3]: 4.5 mmo/L and 4.9 mmo/L and 4.7 mmo/L and 5.0 mmo/L and 5.2 mmo/L and 4.6 mmo/L
- Na [2, 3]: 149 mmo/L and 147 mmo/L and 148 mmo/L
- TBIL [2, 3]: 0.15 mg/dL
- TP [2, 3]: 5.0 g/dL and 5.1 g/dL and 5.5 g/dL and 5.2 g/dL and 5.3 g/dL
- AGR ([2]; Grp 2 Avg, 3 samplings): 1.8 and 2.2 and 2.1
- ALB ([2]; Grp 2 Avg, 3 samplings): 3.3 g/dL and 3.5 g/dL and 3.6 g/dL
- ALPK ([2]; Grp 2 Avg, 3 samplings): 186 IU/L and 126 IU/L and 116 IU/L
- ALT ([2]; Grp 2 Avg, 3 samplings): 20 IU/L and 26 IU/L and 25 IU/L
- AST ([2]; Grp 2 Avg, 3 samplings): 42 IU/L and 39 IU/L and 37 IU/L
- BUN ([2]; Grp 2 Avg, 3 samplings): 13 mg/dL and 15 mg/dL
- CA2 ([2]; Grp 2 Avg, 3 samplings): 10.9 mg/dL and 10.8 mg/dL
- CHOL ([2]; Grp 2 Avg, 3 samplings): 153 mg/dL and 145 mg/dL and 133 mg/dL
- CREA ([2]; Grp 2 Avg, 3 samplings): 0.7 mg/dL and 0.6 mg/dL
- GGT ([2]; Grp 2 Avg, 3 samplings): 3 IU/L
- GLOB ([2]; Grp 2 Avg, 3 samplings): 1.8 g/dL and 1.7 g/dL
- GLUC ([2]; Grp 2 Avg, 3 samplings): 93 mg/dL and 98 mg/dL and 96 mg/dL
- K ([2]; Grp 2 Avg, 3 samplings): 4.8 mmo/L and 5.1 mmo/L and 4.7 mmo/L
- Na ([2]; Grp 2 Avg, 3 samplings): 149 mmo/L and 147 mmo/L and 148 mmo/L
- TBIL ([2]; Grp 2 Avg, 3 samplings): 0.15 mg/dL
- TP ([2]; Grp 2 Avg, 3 samplings): 5.1 g/dL and 5.2 g/dL and 5.4 g/dL
- TRIG ([2]; Grp 2 Avg, 3 samplings): 52 mg/dL and 60 mg/dL and 47 mg/dL
- AGR [2, 4]: 2.0 and 2.1 and 2.3 and 1.8 and 2.6
- ALB [2, 4]: 3.2 g/dL and 3.4 g/dL and 3.5 g/dL and 3.7 g/dL
- ALPK [2, 4]: 142 IU/L and 135 IU/L and 121 IU/L and 164 IU/L and 90 IU/L and 176 IU/L
- ALT [2, 4]: 26 IU/L and 24 IU/L and 22 IU/L and 28 IU/L and 20 IU/L
- AST [2, 4]: 30 IU/L and 32 IU/L and 33 IU/L and 28 IU/L
- CA2 [2, 4]: 10.7 mg/dL and 10.5 mg/dL and 10.0 mg/dL and 11.2 mg/dL and 10.8 mg/dL and 10.4 mg/dL
- CHOL [2, 4]: 100 mg/dL and 111 mg/dL and 126 mg/dL and 175 mg/dL and 141 mg/dL
- CREA [2, 4]: 0.6 mg/dL and 0.7 mg/dL and 1.0 mg/dL and 0.5 mg/dL and 0.9 mg/dL
- GGT [2, 4]: 3 IU/L
- GLOB [2, 4]: 1.6 g/dL and 1.7 g/dL and 1.5 g/dL and 2.0 g/dL and 1.4 g/dL
- K [2, 4]: 4.7 mmo/L and 5.1 mmo/L and 5.8 mmo/L and 5.5 mmo/L and 5.3 mmo/L and 5.9 mmo/L
- Na [2, 4]: 146 mmo/L and 148 mmo/L and 149 mmo/L and 145 mmo/L
- TBIL [2, 4]: 0.15 mg/dL
- TP [2, 4]: 4.8 g/dL and 5.1 g/dL and 5.0 g/dL and 5.5 g/dL
- AGR ([2]; Grp 3 Avg, 3 samplings): 2.2 and 1.9 and 2.4
- ALB ([2]; Grp 3 Avg, 3 samplings): 3.4 g/dL and 3.5 g/dL and 3.6 g/dL
- ALPK ([2]; Grp 3 Avg, 3 samplings): 153 IU/L and 113 IU/L and 149 IU/L
- ALT ([2]; Grp 3 Avg, 3 samplings): 27 IU/L and 22 IU/L and 21 IU/L
- AST ([2]; Grp 3 Avg, 3 samplings): 30 IU/L and 32 IU/L
- CA2 ([2]; Grp 3 Avg, 3 samplings): 11.0 mg/dL and 10.7 mg/dL and 10.2 mg/dL
- CHOL ([2]; Grp 3 Avg, 3 samplings): 113 mg/dL and 143 mg/dL and 126 mg/dL
- CREA ([2]; Grp 3 Avg, 3 samplings): 0.6 mg/dL and 1.0 mg/dL
- GGT ([2]; Grp 3 Avg, 3 samplings): 3 IU/L
- GLOB ([2]; Grp 3 Avg, 3 samplings): 1.6 g/dL and 1.9 g/dL and 1.5 g/dL
- GLUC ([2]; Grp 3 Avg, 3 samplings): 106 mg/dL and 89 mg/dL and 58 mg/dL
- K ([2]; Grp 3 Avg, 3 samplings): 5.1 mmo/L and 5.2 mmo/L and 5.9 mmo/L
- Na ([2]; Grp 3 Avg, 3 samplings): 148 mmo/L and 146 mmo/L and 149 mmo/L
- TBIL ([2]; Grp 3 Avg, 3 samplings): 0.15 mg/dL
- TP ([2]; Grp 3 Avg, 3 samplings): 4.9 g/dL and 5.3 g/dL and 5.1 g/dL
- TRIG ([2]; Grp 3 Avg, 3 samplings): 30 mg/dL and 39 mg/dL and 55 mg/dL
- AGR [2, 5]: 2.3 and 1.8 and 1.9 and 2.0 and 1.7 and 1.6
- ALB [2, 5]: 3.6 g/dL and 3.4 g/dL and 3.2 g/dL and 3.3 g/dL and 3.5 g/dL
- ALPK [2, 5]: 103 IU/L and 114 IU/L and 119 IU/L and 93 IU/L and 95 IU/L and 147 IU/L and 146 IU/L and 129 IU/L
- ALT [2, 5]: 27 IU/L and 28 IU/L and 25 IU/L and 24 IU/L and 20 IU/L and 21 IU/L and 40 IU/L and 23 IU/L
- AST [2, 5]: 32 IU/L and 39 IU/L and 34 IU/L and 33 IU/L and 38 IU/L and 31 IU/L and 35 IU/L and 30 IU/L
- BUN [2, 5]: 11 mg/dL and 12 mg/dL and 13 mg/dL and 16 mg/dL and 15 mg/dL
- CA2 [2, 5]: 10.8 mg/dL and 10.6 mg/dL and 10.4 mg/dL and 11.1 mg/dL and 11.2 mg/dL and 11.0 mg/dL
- CREA [2, 5]: 0.7 mg/dL and 0.6 mg/dL and 0.5 mg/dL
- GGT [2, 5]: 3 IU/L
- GLOB [2, 5]: 1.6 g/dL and 1.9 g/dL and 1.7 g/dL and 2.1 g/dL and 2.0 g/dL
- K [2, 5]: 4.7 mmo/L and 4.8 mmo/L and 4.6 mmo/L and 5.1 mmo/L and 4.3 mmo/L and 5.3 mmo/L and 4.9 mmo/L
- Na [2, 5]: 152 mmo/L and 147 mmo/L and 145 mmo/L and 153 mmo/L and 148 mmo/L and 146 mmo/L and 149 mmo/L
- TBIL [2, 5]: 0.15 mg/dL
- TP [2, 5]: 5.2 g/dL and 5.3 g/dL and 4.9 g/dL and 5.1 g/dL and 5.0 g/dL and 5.6 g/dL and 5.5 g/dL and 5.4 g/dL
- TRIG [2, 5]: 49 mg/dL and 46 mg/dL and 40 mg/dL and 53 mg/dL and 44 mg/dL and 34 mg/dL and 41 mg/dL and 55 mg/dL
- AGR [2, 6]: 2.2 and 1.8 and 1.9
- ALB [2, 6]: 3.5 g/dL and 3.4 g/dL and 3.3 g/dL
- ALPK [2, 6]: 103 IU/L and 104 IU/L and 107 IU/L
- ALT [2, 6]: 28 IU/L and 26 IU/L
- AST [2, 6]: 33 IU/L and 39 IU/L
- BUN [2, 6]: 12 mg/dL and 13 mg/dL
- CA2 [2, 6]: 10.8 mg/dL and 10.7 mg/dL and 10.5 mg/dL
- CHOL [2, 6]: 139 mg/dL and 136 mg/dL and 112 mg/dL
- CREA [2, 6]: 0.7 mg/dL and 0.6 mg/dL
- GGT [2, 6]: 3 IU/L
- GLOB [2, 6]: 1.7 g/dL and 1.9 g/dL
- GLUC [2, 6]: 102 mg/dL and 76 mg/dL and 91 mg/dL
- K [2, 6]: 4.7 mmo/L and 5.0 mmo/L and 4.5 mmo/L
- Na [2, 6]: 153 mmo/L and 148 mmo/L and 146 mmo/L
- TBIL [2, 6]: 0.15 mg/dL
- TP [2, 6]: 5.2 g/dL and 5.3 g/dL and 5.0 g/dL
- TRIG [2, 6]: 51 mg/dL and 48 mg/dL and 42 mg/dL

From US12186283B2, “Bismuth-thiol compositions and methods of use” (Microbion Corporation, priority 2018, dated 2025)
